Patent US12161630B2, “Methods to control infection using new generation small molecule growth inhibitors” (priority 2017, dated 2024)
≈ marks a conversion by molar mass, not a printed value.

Legend:
Salmonella Anatum = assay: MIC and MBC dose-response, serotype Anatum; type: cell-based, Salmonella enterica; settings: MIC identical to MBC
Method: (§1) An overnight Salmonella suspension was normalized at 0.05 OD600 (approximately 3.5×10^7 CFU/ml) with an adjusted M9 minimal broth medium (12.7 mM Na2HPO4 7H2O; 22 mM KH2PO4; 18.7 mM NH4Cl; 2 mM MgSO4; 0.1 mM CaCl2; 0.4% glucose; 0.05% casamino acids). 100 μL of the suspension plus 2 μl of SMs (200 μM) were transferred into each well of a sterile, non-treated, flat bottom 96-well plate. Bacteria alone (negative control, NC), 2% DMSO plus bacteria (DMSO control), 20 μg/ml chloramphenicol or 50 μg/ml kanamycin plus bacteria (positive controls, PC), and M9 medium only were used as control. Plates were incubated in a Sunrise™ Tecan kinetic microplate reader for 12 hrs at 37° C. and the optical density (OD) was measure at 600 nm as described above. Percentage of inhibition=(OD600 SM−OD600 NC)/(OD600 NC)×100. […] Cultures from wells showing no turbidimetric increase were transferred onto a XLT4 agar plate. Plates were incubated at 37° C. for 36 hrs.
(§2) Screens were performed as described in the primary screen. The lowest SM concentration with a static effect was considered as the minimal inhibitory concentration (MIC) and the lowest SM concentration with a cidal effect was considered as the minimal bactericidal concentration (MBC).

Salmonella Enteritidis = assay: MIC and MBC dose-response, serotype Enteritidis; type: cell-based, Salmonella enterica; settings: MIC identical to MBC
Method: as §1, §2

Salmonella Heidelberg = assay: MIC and MBC dose-response, serotype Heidelberg; type: cell-based, Salmonella enterica; settings: MIC identical to MBC
Method: as §1, §2

Salmonella Javiana = assay: MIC and MBC dose-response, serotype Javiana; type: cell-based, Salmonella enterica; settings: MIC identical to MBC
Method: as §1, §2

Salmonella Saint-Paul = assay: MIC and MBC dose-response, serotype Saint-Paul; type: cell-based; settings: MIC identical to MBC
Method: as §1, §2

M. gallisepticum = assay: Activity on avian pathogens at 200 μM, M. gallisepticum; type: cell-based, Mycoplasma gallisepticum
Method: FIGS. 1(A-E). Selection of potent Salmonella growth inhibitors. FIG. 1A: High-throughput screening of 4182 SMs against S. typhimurium WT at 200 μM. Negative value: growth inhibition; Positive value: growth stimulation compared to S. typhimurium growth not treated. The black line represents growth inhibition caused by 2% DMSO. FIG. 1B: Activity of 19 S. typhimurium growth inhibitors against additional Salmonella serotypes. Light grey cells: total growth inhibition; dark grey cells: bacterial growth observed; black cells: not determined. FIG. 1C: Dose-response assays of the selected 19 SMs against S. typhimurium WT. […] The black line represents a cut off of nine serotypes killed per SM. FIG. 1E: Activity spectra of the selected four SMs at 200 μM each on several avian-pathogens (Campylobacter jejuni, Escherichia coli APEC, and Mycoplasma gallisepticum) and beneficial gut bacteria (remaining species). E. coli APEC refers to Avian Pathogenic E. coli and includes E. coli O1, O2, O8, O15, O18, O35, O78, O109, and O115. Light grey cells: cidal effect; dark grey cells: bacterial growth observed. Left side: phylogenetic tree based on NCBI taxonomic ID built with PhyloT software.
The selected four SMs were tested on twelve beneficial-commensal gut bacteria at 200 μM (FIG. 1E). […] These four SMs were also growth inhibitors of other avian pathogens at 200 μM (unpublished data, FIG. 1E). […] The antimicrobial activity seemed not to be influenced by the taxonomic classification, however the SM5 bacterial target may be less present in prokaryotes than the drug target of the other three SMs.

[1] = system: S. typhimurium cell membrane and nucleic acids; assay: Confocal microscopy of SM-challenged S. typhimurium (FM4-64, SYTO9); type: cell-based, Salmonella enterica subsp. Enterica serotype Typhimurium; settings: 5×MBC of SMs for 3 hrs; compared to DMSO control
Text: FIG. 13. Confocal and scanning electron microscopy (SEM) analyses of Salmonella enterica subsp. Enterica serotype Typhimurium after challenge with five times the minimal bactericidal concentration of small molecules (5×MBC of SMs) for 3 hrs. (A-O) Confocal microscopy: (A-E) S. typhimurium cell membrane stained with FM4-64; (F-J) S. typhimurium nucleic acids stained with SYTO9; (K-O) Merged pictures of the FM4-64 and SYTO9 staining. (P-S) SEM: (P) 1% dimethyl sulfoxide (DMSO) treated Salmonella; (Q) SM1 treated Salmonella; (R) SM4 treated Salmonella; (S) SM5 treated Salmonella; Bar: 1 μm.

[2] = system: S. typhimurium cell membrane; assay: Leakage of 260 nm-absorbing material after treatment with lethal dose of SMs; type: cell-based; settings: 1 hr, compared to 1% DMSO control
Method: To further support the observation obtained with confocal microscopy, the same samples were analyzed using scanning electron microscopy (SEM; FIG. 13P-S). […] Smaller outer membrane vesicles of approximately 20 to 70 nm were also observed covering the surface of the bacteria. […] These conclusions were further supported by measuring the crystal violet uptake and leakage of materials assessed at 260 nm after 1 hr of treatment with a lethal dose of SMs.

Kan^R S. typhimurium = assay: Salmonella clearance in one-week-old infected broiler chickens; type: in vivo; settings: 100 μg orally twice daily for 5 days; for reduction in Salmonella population inside the ceca: compared to DMSO group; for Chicken tissues positive for Salmonella: Ceca / Chicken tissues positive for Salmonella: Livers / Chicken tissues positive for Salmonella: Spleens: n = 10
Method: FIG. 7. Experimental design of the Salmonella clearance study in one-week-old infected broiler chickens. Salmonella-free chickens were orally infected with 10^4 S. typhimurium units per chickens (0 DPI). After confirmation of the intestinal colonization by Salmonella (1 DPI), ten chicks per treatment were treated twice a day for five days with 100 μg of SMs (3 DPI to 7 DPI). Ceca, liver, and spleen tissues were collected at 8 DPI. DPI: days post-inoculation.
Effect of selected SMs on the survival of S. typhimurium in one-week-old SFP chickens: One-week-old Salmonella-free chickens were orally inoculated with approximately 10^4 Kan^R S. typhimurium bacteria. A rectal swab was collected to confirm the intestinal colonization by Salmonella at one day post-inoculation (DPI). At 3 DPI, chickens were treated orally twice a day for five days with a specific treatment of approximately 920 μg/kg SMs per dose. Details of the treatment groups are described in Table 7. Feeders were taken off one hour before the treatment and put back one hour after the treatment. Following the five days of treatment, chickens were euthanized and tissues were aseptically collected (ceca, liver, and spleen). One of the cecum was immediately stored at −80° C. after sampling for microbiota studies. Ceca, spleens, and livers tissues were suspended in 2, 3, and 5 mL of 1×PBS respectively and grinded. 1 mL of the undiluted homogenized tissue mix was enriched in 9 mL of tetrathionate broth (TTB) medium for 18 hrs at 37° C. The rest of the homogenized tissues were serial ten-fold diluted, plated on XLT4 agar plate supplemented with 50 μg/ml kanamycin, and incubated for 36 hrs at 37° C. Bacterial counts were compared with the DMSO control group.

CCCCCCCCCCCCCCCC[n+]1ccn(CC#N)c1.[Cl-] [SM3, 1-(cyanomethyl)-3-hexadecyl-1H-imidazol-3-ium chloride]
MIC/MBC (Salmonella Anatum): 25 µM | MIC/MBC (Salmonella Enteritidis): 25 µM | MIC/MBC (Salmonella Heidelberg): 50 µM | MIC/MBC (Salmonella Javiana): 25 µM | MIC/MBC (Salmonella Saint-Paul): 50 µM | effect against M. gallisepticum (M. gallisepticum): killed | FM4-64 cell membrane staining phenotype [1]: No signal was detected | increase in 260 nm-absorbing material [2]: 7.17 fold | reduction in Salmonella population inside the ceca (Kan^R S. typhimurium): did not show any reduction | Chicken tissues positive for Salmonella: Ceca (Kan^R S. typhimurium): 80% | Chicken tissues positive for Salmonella: Livers (Kan^R S. typhimurium): 60% | Chicken tissues positive for Salmonella: Spleens (Kan^R S. typhimurium): 50%

CC1CCC(C(C)C)C(OC(=O)Cn2c[n+](CC(=O)OC3CC(C)CCC3C(C)C)c3ccccc32)C1.[Cl-] (stereo not drawn) [SM1, 1,3-bis{2-[(2-isopropyl-5-methylcyclohexyl)oxy]-2-oxoethyl}-1H-3,1-benzimidazol-3-ium chloride]
MIC/MBC (Salmonella Anatum): 100 µM | MIC/MBC (Salmonella Enteritidis): 100 µM | MIC/MBC (Salmonella Heidelberg): 100 µM | MIC/MBC (Salmonella Javiana): 100 µM | MIC/MBC (Salmonella Saint-Paul): 100 µM | FM4-64 cell membrane staining phenotype [1]: No signal was detected | increase in 260 nm-absorbing material [2]: 2.18 fold | reduction in Salmonella population inside the ceca (Kan^R S. typhimurium): did not show any reduction | Chicken tissues positive for Salmonella: Ceca (Kan^R S. typhimurium): 90% | Chicken tissues positive for Salmonella: Livers (Kan^R S. typhimurium): 40% | Chicken tissues positive for Salmonella: Spleens (Kan^R S. typhimurium): 50%

CCOc1cc(/C=N/N=C(N)N)ccc1OCc1ccc(Cl)cc1 [SM5, N″-{4-[(4-chlorobenzyl)oxy]-3-ethoxybenzylidene}carbonohydrazonic diamide]
MIC/MBC (Salmonella Anatum): 50 µM (≈ 17.3 µg/mL) | MIC/MBC (Salmonella Enteritidis): 50 µM (≈ 17.3 µg/mL) | MIC/MBC (Salmonella Heidelberg): 50 µM (≈ 17.3 µg/mL) | MIC/MBC (Salmonella Javiana): 50 µM (≈ 17.3 µg/mL) | MIC/MBC (Salmonella Saint-Paul): 50 µM (≈ 17.3 µg/mL) | effect against M. gallisepticum (M. gallisepticum): killed | FM4-64 cell membrane staining phenotype [1]: stained cell membrane; however, a bright red spot was detected within every bacterium | increase in 260 nm-absorbing material [2]: 5.25 fold | Chicken tissues positive for Salmonella: Ceca (Kan^R S. typhimurium): 70% | Chicken tissues positive for Salmonella: Livers (Kan^R S. typhimurium): 40% | Chicken tissues positive for Salmonella: Spleens (Kan^R S. typhimurium): 30%

CCCCCCCCCCCCCCCCn1c[n+](C)c2ccccc21.[Br-] [SM4, 1-hexadecyl-3-methyl-1H-3,1-benzimidazol-3-ium bromide]
MIC/MBC (Salmonella Anatum): 10 µM | MIC/MBC (Salmonella Enteritidis): 10 µM | MIC/MBC (Salmonella Heidelberg): 25 µM | MIC/MBC (Salmonella Javiana): 10 µM | MIC/MBC (Salmonella Saint-Paul): 10 µM | effect against M. gallisepticum (M. gallisepticum): killed | FM4-64 cell membrane staining phenotype [1]: No signal was detected | increase in 260 nm-absorbing material [2]: 15.95 fold | Chicken tissues positive for Salmonella: Ceca (Kan^R S. typhimurium): 40% | Chicken tissues positive for Salmonella: Livers (Kan^R S. typhimurium): 30% | Chicken tissues positive for Salmonella: Spleens (Kan^R S. typhimurium): 20%
